The test system of one series is HIV-1 env. Nature of the series: Syncytia assay, cell line expressing only envelope proteins of HIV-1 IIIb with Supt-1 cells. Particulars: for syncytia score (number 0-4, size S/M/L): 24 hours. It is filed as cell-based. The protocol: (§1) In order to assess the effects of Hy and Ps on the ability of HIV to form syncytia, the following experiments were performed. For the analysis of HIV-1, an entry syncytia assay was performed by co-culturing H9 cells (described in Popovic, M. et al. Science 224: 497-500, 1984) infected with the IIIb isolate of HIV with uninfected Supt-1 cells (Walker, B. D. et al. Proc. Nat. Acad. Sci. (USA) 84: 8120-8124, 1987) as the target cell. HIV-2 was tested using HUT78 cells (obtained from the National Institute of Health by reference to Depository Catalog, Reagent Program, Bethesda, Md.) infected with the ROD-2 isolate of HIV-2 co-cultured with uninfected H9 target cells. The infected cells were plated in 96 well plates (10^4 cells per well in RPM1 1640 medium with 10% fetal calf serum) and incubated with or without dilutions of Ps or Hy for 30 minutes at 37° C. 1×10^5 target cells were then added per well and the number of syncytia were quantitatively and qualitatively determined after 24 hours.
Also tested in a syncytia assay was a constructed cell line expressing only the envelope proteins of HIV-1 type IIIb isolate (Walker, B. D. et al., supra). These cells, designated HIV-1 env in Table 6, were treated with the indicated concentrations of Ps or Hy and incubated with uninfected Supt-1 target cells as above.

For a further series, the system named is HIV-1. Nature of the series: Syncytia assay, H9 cells infected with IIIb isolate of HIV co-cultured with Supt-1 cells. In kind it is cell-based. The settings on record: 24 hours. Here is the method:
as §1

Series [1] can be described thus: Toxicity of hypericin administered to mice. It is filed as in vivo. Here is the method: In general, up to 100 mg and preferably between 1 mg and about 10 mg of the antiviral compounds may be employed to completely eliminate the infectivity properties of human retroviruses such as HIV in one unit of whole blood. Intravenous transfusion or administration of blood containing this level of hypericin for example should pose no serious toxicity or tolerance threat to human recipients of such transfused blood. […] This correlates with a dose of approximately 25 mg i.v. in man, or twenty times the dose that would be received from a transfusion of 1 unit of whole blood containing 2.5 micrograms/ml hypericin. In addition, i.e. administration of 1.2 mg of hypericin in phosphate buffered saline (PBS) containing 10% ethanol to a mouse was not lethal. (Naturally, it is preferred to use the minimum amount of the antiviral compounds that is effective to terminate the infectivity of the target virus in a given biological fluid. The minimum effective amount required for abolishing infectivity of a particular viral species suspected to be present in a biological fluid can be easily determined through the exercise of routine experimentation.)

As to `Cc1cc(O)c2c(=O)c3c(O)cc(O)c4c5c(O)cc(O)c6c(=O)c7c(O)cc(C)c8c1c2c(c34)c(c78)c65` [hypericin], the “syncytia score (number 0-4, size S/M/L)” value in the series with HIV-1 env (7 nanograms) came to 4 L; in the series with HIV-1 env (14 nanograms), 4 L; in the series with HIV-1 env (28 nanograms) it was 4 L; in the series on HIV-1 env (56 nanograms), 4 L; in the series on HIV-1 env (112 nanograms) it was 3 M; in the series on HIV-1 env (225 nanograms), 0. For the same molecule, the “syncytia score (number 0-4, size S/M/L)” value in the series with HIV-1 env (450 nanograms) was 0; in the series on HIV-1 env (900 nanograms), 0; in the series with HIV-1 env (1800 nanograms) it was 0; with HIV-1 (7 nanograms) it was 4 L; in the series on HIV-1 (14 nanograms) it was 4 L; in the series with HIV-1 (28 nanograms) it was 3 L. In addition, the “syncytia score (number 0-4, size S/M/L)” value in the series with HIV-1 (56 nanograms), with HIV-1 (112 nanograms), with HIV-1 (225 nanograms), in the series on HIV-1 (450 nanograms), in the series on HIV-1 (900 nanograms) and with HIV-1 (1800 nanograms) was 0 each time. Further, the “inhibition of the viral entry process (comparison)” value in the series with HIV-1 env (HIV-1 env cells and live virus assays) was “more effective than pseudohypericin”. Further, the “corresponding dose in man” value in series [1] (i.v., extrapolated from 100 micrograms per mouse) is “approximately 25 mg”. For the same molecule, the toxic side effects entry in series [1] (mice, intravenous, 100 micrograms per mouse) was “not exhibited any toxic side effects”. Besides, the lethality entry in series [1] (mouse, 1.2 mg in PBS containing 10% ethanol) is “not lethal”.

(Values after US5326788A, “Biological fluid purification system” (priority 1992, dated 1994).)
